Patent publication US20230226079A1, “METHODS AND COMPOSITIONS FOR TREATMENT OF SOLID TUMORS” (Saint Louis University, priority 2022, published 2023)

Tests used:
c-Met and c-Myc = test: Western blot of Ca127 tumor lysates; assay type: in vivo, nude mice; details: Ca127 xenograft tumors
Description: Lysates from control, BME or M-I treated cells and tumors were prepared using 2 SDS sample buffer and subjected to western blot analysis using specific antibodies to c-Met (1:500, Cell Signaling Technology, CST, Denvers, Mass., USA,), phospho-STAT3 (pSTAT3-Tyr-705) (1:1000, CST), total STAT3 (1:1000, CST), c-Myc (1:1000, CST), surviving (1:500, Santa Cruz Biotechnology, SBT, Dallas, Tex., USA) and cyclin D1 (1: 500, SBT). HRP conjugated anti-mouse or anti-rabbit secondary antibodies were purchased from Bio-Rad (Hercules, Calif., USA). The blot was reprobed with HRP conjugated -actin antibody (1:5000; SBT) to compare protein load in each lane. Densitometry analysis was done using Image J software (NIH, Bethesda, Md., USA).
JHU029 or Ca127 cells (1.5 10^6) containing 40% Matrigel were injected subcutaneously into the flank of BALB/c athymic nude mice (7-8 weeks old). When the palpable tumor was developed (>60 mm3), mice were divided into three groups randomly, 5 mice in each group. The control group was without any treatment. The BME group received 30% (v/v) BME through drinking water. M-I group received 30 mg/kg dose of M-I once in day, every day. Body weight was monitored, and tumor size was measured using a slide caliper and volume was calculated using the formula 1/2 L X W2. After animal sacrifice tumors were dissected out and snap frozen in liquid nitrogen for further analysis. […]

[1] = test system: normal oral keratinocytes (NOK); test: Cytotoxicity assay in normal oral keratinocytes; assay type: cell-based, human; details: 48 h
Text: (§1) Normal oral keratinocytes (NOK) (kindly gifted by Dr. Karl Mugner, Tuffs University, Boston, MA, USA) were maintained in Keratinocyte SFM medium supplemented with EGF and bovine pituitary extract (GIBCO, Life Technologies, Berkeley, MO, USA) and 1% penicillin/ streptomycin. HNC cell line Ca127 was purchased from the ATCC. JHU029 (JHU-29) and JHU022 (JHU-22) cell lines were procured from the Johns Hopkins University (Baltimore, MD, USA). The Ca127 and JHU022 cells were maintained in Dulbecco's Modified Eagle Medium (DMEM), and JHU029 cells were in RPMI1640 (Sigma, St. Louis, Mo., USA) media supplemented with 10% FBS and 1% penicillin/ streptomycin (Sigma-Aldrich, St. Louis, Mo., USA) in a humidified CO2 incubator. The cell lines are routinely tested in the Inventors' laboratory to rule out mycoplasma contamination using a commercial Mycoplasma Detection kit (MycoAlert™, Lonza, Morrisville, N.C., USA). Ca127 cells are tongue origin and JHU022 and JHU029 cells are from larynx origin.
Ca127, JHU029, JHU022 and NOK were seeded in 96 well-plate (5000 cells/well) and cells were treated with different concentration of M-I for 48 h. There were untreated control and DMSO treated vehicle control group for comparison. Cytotoxicity assay was performed using Cell Counting Kit-8 (Dojindo Molecular Technology, Rockville, Md., USA) according to manufacturer instruction.

insulin secretion = details: in vitro; cited from earlier work
Ca127 cells = test: Cytotoxicity assay (Cell Counting Kit-8) in Ca127 cells; assay type: cell-based; details: 48 h, treated for 48 h; read-out: IC50 dose, Ca127 cells
Text: as §1
(§2) Bitter melon extract (BME) was prepared from the Chinese variety of young bitter melons (raw and green) as described previously (Rajamoorthi et al. (2013) PLoS ONE; 8, e78006). Briefly, BME was prepared by aqueous extraction from whole fruit without seeds using a household juicer at room temperature with subsequent centrifugation at 15000 g at 4 C for 30 min. BME was stored at −80 C for further analysis. […]

JHU029 cells = test: Cytotoxicity assay (Cell Counting Kit-8) in JHU029 cells; assay type: cell-based; details: 48 h, treated for 48 h; read-out: IC50 dose, JHU029 cells
Text: as §1, §2

MDA-MB-231 cells = assay type: cell-based
Text: FIG. 10A illustrates Treated or untreated cells were stained with Calcein AM (green color indicates live cells) and ethidium homodimer-1 (red color inndicates dead cells-shown by white arrows) to quantitate the live and dead cells by fluorescence microscopy with corresponding bright field images. Magnification 10X. Arrows indicate dead cells. FIG. 10B illustrates Quantitation of relative dead cells, calculated from five random fields. Small bar indicates standard error ***p<0.001).
FIG. 11 illustrates M-I activates NK cells for killing activity. MDA-MB-231 cells were co-cultured with NK cells activated by IL2, BME or M-I. After 24 hr cell lysates were prepared and subjected to Western blot analysis using specific antibodies. Left panel: Representative western blot images for cleaved PARP, expression of cleaved Caspase 9 and 3 are shown. Membrane was reprobed with antibody for Actin as an internal control.
(§3) NK cells are implicated in drug induced resistant cancer cells to drive tumor growth (Smalley et al., 2020). […] Bitter melon extract was used as a control. Control or M-I treated NK3.3 cells were also cocultured with MDA-MB-231 cells at 1:5 (Target:Effector) ratio for 24 h and stained for viable/dead cells. […] The apoptotic markers were further examined by Western blot analysis.

NK3.3 cells = test: NK-cell viability; assay type: cell-based
Description: FIG. 9 illustrates NK3.3 cells treated with bitter melon extract or M-I and cell viability was measured at 48h or 72h after treatment. Results shown are an average of three independent experiments. Small bar indicates standard error. (* p <0.05)
as §3

Structure (SMILES): CC(C)=CC(O)CC(C)[C@H]1CC[C@@]2(C)[C@@H]3[C@@H](O)C=C4[C@@H](CC[C@H](O)C4(C)C)[C@]3(C=O)CC[C@]12C (stereo partly drawn) [M-I, (3S, 7S, 8S, 9R, 10R, 13R, 14S, 17R) 3,7-dihydroxy-17-(4-hydroxy-6-methylhept-5-en-2-yl)-4,4,13,14-tetramethyl-2,3,7,8,10,11, 12,15, 16,17-decahydro-1H-cyclopenta[a]phenanthrene-9-carbaldehyde]
- c-Met and c-Myc expression in tumors versus control (c-Met and c-Myc): significant reduction
- effect on human normal oral keratinocytes (NOK) [1]: minimum effect
- insulin secretion (insulin secretion): stimulate insulin secretion
- IC50 (Ca127 cells): < 8 µg/mL
- IC50 (JHU029 cells): < 8 µg/mL
- cytotoxicity of treated NK3.3 cells against MDA-MB-231 cells (MDA-MB-231 cells): enhanced cytotoxicity
- caspase 9/3 and PARP cleavage in breast cancer cells (MDA-MB-231 cells; M-I treated NK cells co-cultured with MDA-MB-231 cells, 24 hr, Western blot): activate caspase 9/3 and PARP cleavage
- NK-cell viability (NK3.3 cells): no cytotoxic effect
